Measurements as given in patent publication US20110245537A1, “L-carnitine calcium fumarate, preparation method and application for the same” (Liaoning Konepnutra Co., Ltd, priority 2009, published 2011).

What was measured:
[1] = cited from earlier work
[2] = hygroscopicity: caking or sticking on exposure to air; assay type: physicochemical; conditions: 25° C., relative humidity of 60±5%, 24 hours exposure to air
Excerpt: The obtained L-carnitine calcium fumarate is in uniform powder form with good fluidity, more than 98% of which is smaller than 40 mesh size. […] The product has a calcium content of 6.76% with good non-hygrosopicity.
The obtained L-carnitine calcium fumarate is in uniform powder form and has good fluidity, greater than 98% of which is smaller than 40 mesh in granular size. […] The product has a calcium content of 9.28%, with better non-hygrosopicity.

Row | Compound | relative humidity at which the salt will deliquesce [1] | caking or sticking phenomena (non-hygroscopicity) [2]
1 | C[N+](C)(C)C[C@H](O)CC(=O)[O-].O=C(O)C(O)C(O)C(=O)O [L-carnitine tartrate, L-carnitine L-tartrate] | over 60% | 
2 | L-Carnitine Calcium Fumarate (1:2:1) [Example 2] |  | no caking or sticking phenomena
3 | L-Carnitine Calcium Fumarate (2:2:1) [Example 1] |  | no caking or sticking phenomena
